Measured values published in ChEMBL document CHEMBL3862033 (J Med Chem, 2016).

Key:
[1] = target: 5-hydroxytryptamine receptor 1E (Homo sapiens) (UniProt P28566); assay: Displacement of [3H]5-HT from human 5-HT1E receptor expressed in HEK cell membranes at 10 uM incubated for 90 mins under dark condition by microbeta scintillation counting method relative to control; conditions: HEK293
[2] = target: 5-hydroxytryptamine receptor 7 (Homo sapiens) (UniProt P34969); assay: Displacement of [3H]LSD from human 5-HT7A receptor expressed in HEK cell membranes at 10 uM incubated for 90 mins under dark condition by microbeta scintillation counting method relative to control; conditions: HEK293
Sequence of 5-hydroxytryptamine receptor 7 (Homo sapiens) (P34969 whole entry): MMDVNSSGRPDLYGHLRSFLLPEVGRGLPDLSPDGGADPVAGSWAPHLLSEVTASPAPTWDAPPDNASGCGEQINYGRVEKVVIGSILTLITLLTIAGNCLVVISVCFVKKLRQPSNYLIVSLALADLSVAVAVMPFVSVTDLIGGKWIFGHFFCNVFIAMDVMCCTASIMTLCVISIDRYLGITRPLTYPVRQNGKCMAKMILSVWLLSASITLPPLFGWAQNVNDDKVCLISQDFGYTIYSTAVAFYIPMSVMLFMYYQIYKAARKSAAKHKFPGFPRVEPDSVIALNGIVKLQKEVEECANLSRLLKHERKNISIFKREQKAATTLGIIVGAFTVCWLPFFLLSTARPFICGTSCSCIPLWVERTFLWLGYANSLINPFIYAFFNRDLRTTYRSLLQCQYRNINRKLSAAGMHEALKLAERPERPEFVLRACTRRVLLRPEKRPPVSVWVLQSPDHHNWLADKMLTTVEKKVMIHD

[3] = target: T1, 5-hydroxytryptamine receptor 2C (Homo sapiens, UniProt P28335); assay: Displacement of [3H]mesulergine from human 5-HT2CR expressed in Flp-In HEK cell membranes incubated for 90 mins under dark condition by microbeta scintillation counting method; design: species or system HEK293
T1 sequence (P28335 whole entry): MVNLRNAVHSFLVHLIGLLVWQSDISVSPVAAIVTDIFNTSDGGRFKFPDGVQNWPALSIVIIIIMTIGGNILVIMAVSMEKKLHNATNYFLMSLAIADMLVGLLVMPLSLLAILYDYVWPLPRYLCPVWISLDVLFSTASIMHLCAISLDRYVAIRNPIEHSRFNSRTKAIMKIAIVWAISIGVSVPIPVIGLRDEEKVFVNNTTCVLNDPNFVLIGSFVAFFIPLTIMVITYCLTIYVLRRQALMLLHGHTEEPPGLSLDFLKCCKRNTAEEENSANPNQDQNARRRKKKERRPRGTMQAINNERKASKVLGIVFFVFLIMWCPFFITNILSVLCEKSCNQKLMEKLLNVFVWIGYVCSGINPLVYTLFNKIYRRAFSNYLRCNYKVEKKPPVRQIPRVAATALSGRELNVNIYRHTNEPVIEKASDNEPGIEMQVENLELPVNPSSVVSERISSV

[4] = target: 5-hydroxytryptamine receptor 3A (Homo sapiens, UniProt P46098); assay: Displacement of [3H]GR65630 from human 5-HT3 receptor expressed in HEK-T cell membranes incubated for 90 mins under dark condition by microbeta scintillation counting method
[5] = target: 5-hydroxytryptamine receptor 6 (Homo sapiens) (UniProt P50406); assay: Displacement of [3H]LSD from human 5-HT6 receptor expressed in HEK cell membranes at 10 uM incubated for 90 mins under dark condition by microbeta scintillation counting method relative to control; conditions: HEK293
Sequence of 5-hydroxytryptamine receptor 6 (Homo sapiens) (P50406 whole entry): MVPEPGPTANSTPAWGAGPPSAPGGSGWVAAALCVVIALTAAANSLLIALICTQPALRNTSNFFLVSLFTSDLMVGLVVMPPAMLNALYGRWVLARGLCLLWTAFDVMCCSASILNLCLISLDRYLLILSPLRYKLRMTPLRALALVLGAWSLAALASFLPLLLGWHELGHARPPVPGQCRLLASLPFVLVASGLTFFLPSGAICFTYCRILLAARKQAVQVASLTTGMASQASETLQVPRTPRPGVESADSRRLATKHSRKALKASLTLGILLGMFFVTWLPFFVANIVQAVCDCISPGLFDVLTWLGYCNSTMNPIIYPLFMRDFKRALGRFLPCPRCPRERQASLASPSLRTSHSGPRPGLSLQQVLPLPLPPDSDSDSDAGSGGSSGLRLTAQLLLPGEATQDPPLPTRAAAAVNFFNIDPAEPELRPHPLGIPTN

[6] = target: 5-hydroxytryptamine receptor 4 (Homo sapiens) (UniProt Q13639); assay: Displacement of [3H]GR113808 from human 5-HT4 receptor at 10 uM incubated for 90 mins under dark condition by microbeta scintillation counting method relative to control
Sequence of 5-hydroxytryptamine receptor 4 (Homo sapiens) (Q13639 whole entry): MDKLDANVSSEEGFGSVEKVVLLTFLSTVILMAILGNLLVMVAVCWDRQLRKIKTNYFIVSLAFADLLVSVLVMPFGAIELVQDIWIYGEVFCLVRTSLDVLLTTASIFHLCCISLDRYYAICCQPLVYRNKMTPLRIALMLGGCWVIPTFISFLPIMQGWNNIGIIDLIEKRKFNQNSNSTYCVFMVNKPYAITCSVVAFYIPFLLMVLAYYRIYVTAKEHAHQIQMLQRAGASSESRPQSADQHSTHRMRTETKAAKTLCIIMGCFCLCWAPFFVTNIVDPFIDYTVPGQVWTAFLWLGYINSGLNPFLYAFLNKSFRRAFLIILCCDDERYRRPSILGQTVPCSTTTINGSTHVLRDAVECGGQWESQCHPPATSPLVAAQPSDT

[7] = target: 5-hydroxytryptamine receptor 1D (Homo sapiens) (UniProt P28221); assay: Displacement of [3H]5-CT from human 5-HT1D receptor expressed in HEK-T cell membranes at 10 uM incubated for 90 mins under dark condition by microbeta scintillation counting method relative to control
Sequence of 5-hydroxytryptamine receptor 1D (Homo sapiens) (P28221 whole entry): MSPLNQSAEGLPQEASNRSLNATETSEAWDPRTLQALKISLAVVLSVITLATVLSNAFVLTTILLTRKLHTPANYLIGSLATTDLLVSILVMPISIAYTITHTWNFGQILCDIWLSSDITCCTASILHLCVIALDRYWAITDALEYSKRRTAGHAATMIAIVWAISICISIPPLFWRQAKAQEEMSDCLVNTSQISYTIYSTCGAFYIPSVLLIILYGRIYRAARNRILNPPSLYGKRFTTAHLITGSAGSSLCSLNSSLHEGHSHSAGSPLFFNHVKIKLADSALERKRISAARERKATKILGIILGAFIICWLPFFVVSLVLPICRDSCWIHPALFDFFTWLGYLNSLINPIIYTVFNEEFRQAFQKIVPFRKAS

[8] = target: T2, 5-hydroxytryptamine receptor 1A (Homo sapiens) (UniProt P08908); assay: Displacement of [3H]WAY100635 from human 5-HT1AR expressed in CHO cell membranes at 10 uM incubated for 90 mins under dark condition by microbeta scintillation counting method relative to control
T2 sequence (whole entry): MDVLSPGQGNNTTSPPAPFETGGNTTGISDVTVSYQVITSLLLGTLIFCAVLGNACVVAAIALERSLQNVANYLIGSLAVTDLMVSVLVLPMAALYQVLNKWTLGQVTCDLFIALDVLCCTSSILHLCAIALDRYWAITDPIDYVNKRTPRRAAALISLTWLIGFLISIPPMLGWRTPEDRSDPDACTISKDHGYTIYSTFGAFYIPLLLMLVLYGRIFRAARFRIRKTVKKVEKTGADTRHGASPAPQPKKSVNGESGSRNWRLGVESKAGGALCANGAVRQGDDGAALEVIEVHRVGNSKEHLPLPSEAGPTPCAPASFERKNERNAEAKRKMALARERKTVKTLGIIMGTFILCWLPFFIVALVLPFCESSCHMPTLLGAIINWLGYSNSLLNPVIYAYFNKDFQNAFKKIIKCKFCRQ

[9] = target: T3, 5-hydroxytryptamine receptor 2C (Homo sapiens) (UniProt P28335); assay: Displacement of [3H]mesulergine from human 5-HT2CR expressed in Flp-In HEK cell membranes at 10 uM incubated for 90 mins under dark condition by microbeta scintillation counting method relative to control; conditions: HEK293
T3 sequence (whole entry): T1 sequence (P28335 whole entry)

[10] = target: T4, 5-hydroxytryptamine receptor 2A (Homo sapiens, UniProt P28223); assay: Displacement of [3H]ketanserin from human 5-HT2A receptor expressed in HEK-T cell membranes at 10 uM incubated for 90 mins under dark condition by microbeta scintillation counting method relative to control
T4 sequence (P28223 whole entry): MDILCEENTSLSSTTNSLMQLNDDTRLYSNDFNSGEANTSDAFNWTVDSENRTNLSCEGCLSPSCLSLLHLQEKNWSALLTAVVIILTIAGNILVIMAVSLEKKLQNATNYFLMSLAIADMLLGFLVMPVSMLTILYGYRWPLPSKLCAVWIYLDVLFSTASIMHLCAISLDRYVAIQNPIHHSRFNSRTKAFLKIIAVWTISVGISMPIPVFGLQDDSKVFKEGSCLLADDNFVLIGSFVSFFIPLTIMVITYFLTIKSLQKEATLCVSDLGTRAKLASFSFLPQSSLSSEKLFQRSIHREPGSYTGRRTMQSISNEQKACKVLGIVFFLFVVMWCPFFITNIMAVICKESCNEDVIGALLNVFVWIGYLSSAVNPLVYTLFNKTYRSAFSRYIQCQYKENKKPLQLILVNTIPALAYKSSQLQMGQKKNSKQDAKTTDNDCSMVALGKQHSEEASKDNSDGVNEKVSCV

[11] = target: T4, 5-hydroxytryptamine receptor 2A; assay: Displacement of [3H]ketanserin from human 5-HT2A receptor expressed in HEK-T cell membranes incubated for 90 mins under dark condition by microbeta scintillation counting method
[12] = target: 5-hydroxytryptamine receptor 5A (Homo sapiens) (UniProt P47898); assay: Displacement of [3H]LSD from human 5-HT5A receptor expressed in Flp-In-CHO cell membranes incubated for 90 mins under dark condition by microbeta scintillation counting method relative to control; design: concentration or dose not given beside the values
Sequence of 5-hydroxytryptamine receptor 5A (Homo sapiens) (P47898 whole entry): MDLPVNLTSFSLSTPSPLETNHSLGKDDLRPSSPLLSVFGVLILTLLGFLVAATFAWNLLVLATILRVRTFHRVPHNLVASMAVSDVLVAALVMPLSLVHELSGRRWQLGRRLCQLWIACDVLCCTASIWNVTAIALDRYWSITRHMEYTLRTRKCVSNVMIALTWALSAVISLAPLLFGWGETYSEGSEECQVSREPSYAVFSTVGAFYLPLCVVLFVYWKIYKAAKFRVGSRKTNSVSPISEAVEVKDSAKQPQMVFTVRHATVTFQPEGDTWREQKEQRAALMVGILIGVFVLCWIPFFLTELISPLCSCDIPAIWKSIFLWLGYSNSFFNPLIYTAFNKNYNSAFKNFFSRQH

Adenosine receptor A1 = target: T5, Adenosine receptor A1 (Homo sapiens, UniProt P30542); assay: Displacement of [3H]N6-phenylisopropyladenosine from recombinant human A1AR expressed in CHO cell membranes after 60 mins by liquid scintillation counting method
T5 sequence (P30542 whole entry): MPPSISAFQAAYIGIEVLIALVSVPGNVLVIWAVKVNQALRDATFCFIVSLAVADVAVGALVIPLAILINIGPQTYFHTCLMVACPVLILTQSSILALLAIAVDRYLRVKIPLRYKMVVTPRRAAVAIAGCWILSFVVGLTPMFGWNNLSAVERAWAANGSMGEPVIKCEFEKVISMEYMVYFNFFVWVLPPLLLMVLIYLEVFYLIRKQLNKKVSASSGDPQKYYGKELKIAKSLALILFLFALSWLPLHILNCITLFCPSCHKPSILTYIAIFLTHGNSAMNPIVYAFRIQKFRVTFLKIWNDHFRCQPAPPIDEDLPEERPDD

[13] = target: 5-hydroxytryptamine receptor 1B (Homo sapiens) (UniProt P28222); assay: Displacement of [3H]5-CT from human 5-HT1BR expressed in HEK cell membranes at 10 uM incubated for 90 mins under dark condition by microbeta scintillation counting method relative to control; conditions: HEK293
Sequence of 5-hydroxytryptamine receptor 1B (Homo sapiens) (P28222 whole entry): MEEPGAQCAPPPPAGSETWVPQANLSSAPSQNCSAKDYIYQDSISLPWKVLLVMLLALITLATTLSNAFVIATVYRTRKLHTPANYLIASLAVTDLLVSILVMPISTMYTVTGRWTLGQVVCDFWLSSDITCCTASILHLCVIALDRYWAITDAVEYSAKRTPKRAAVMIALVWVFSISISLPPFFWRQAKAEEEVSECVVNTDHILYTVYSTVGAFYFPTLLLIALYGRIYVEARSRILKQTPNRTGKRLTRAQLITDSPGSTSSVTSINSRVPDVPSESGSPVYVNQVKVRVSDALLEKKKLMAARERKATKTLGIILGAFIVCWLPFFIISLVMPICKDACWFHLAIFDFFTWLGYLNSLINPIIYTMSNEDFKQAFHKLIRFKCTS

Adenosine receptor A2a = Adenosine receptor A2a (Homo sapiens, UniProt P29274); assay: Displacement of [3 H]2-[p-(2-carboxyethyl)phenyl-ethylamino]-5'-N-ethylcarboxamidoadenosine from recombinant human adenosine receptor A2A expressed in HEK293 cell membranes at 10 uM after 60 mins by liquid scintillation counting method relative to control
Sequence of Adenosine receptor A2a (P29274 whole entry): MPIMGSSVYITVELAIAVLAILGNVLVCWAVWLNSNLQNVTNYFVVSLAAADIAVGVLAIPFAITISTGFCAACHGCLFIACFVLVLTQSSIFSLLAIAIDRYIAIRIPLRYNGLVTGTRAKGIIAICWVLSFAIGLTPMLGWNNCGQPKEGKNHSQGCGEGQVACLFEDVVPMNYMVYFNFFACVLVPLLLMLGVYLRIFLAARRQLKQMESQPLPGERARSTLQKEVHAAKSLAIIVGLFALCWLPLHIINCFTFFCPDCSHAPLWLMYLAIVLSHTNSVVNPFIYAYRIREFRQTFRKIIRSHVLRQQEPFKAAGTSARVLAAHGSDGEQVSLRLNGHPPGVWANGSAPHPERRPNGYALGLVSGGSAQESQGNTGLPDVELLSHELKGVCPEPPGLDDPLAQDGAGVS

[14] = target: T6, 5-hydroxytryptamine receptor 2B (Homo sapiens, UniProt P41595); assay: biochemical; format: cell-based, HEK293
T6 sequence (P41595 whole entry): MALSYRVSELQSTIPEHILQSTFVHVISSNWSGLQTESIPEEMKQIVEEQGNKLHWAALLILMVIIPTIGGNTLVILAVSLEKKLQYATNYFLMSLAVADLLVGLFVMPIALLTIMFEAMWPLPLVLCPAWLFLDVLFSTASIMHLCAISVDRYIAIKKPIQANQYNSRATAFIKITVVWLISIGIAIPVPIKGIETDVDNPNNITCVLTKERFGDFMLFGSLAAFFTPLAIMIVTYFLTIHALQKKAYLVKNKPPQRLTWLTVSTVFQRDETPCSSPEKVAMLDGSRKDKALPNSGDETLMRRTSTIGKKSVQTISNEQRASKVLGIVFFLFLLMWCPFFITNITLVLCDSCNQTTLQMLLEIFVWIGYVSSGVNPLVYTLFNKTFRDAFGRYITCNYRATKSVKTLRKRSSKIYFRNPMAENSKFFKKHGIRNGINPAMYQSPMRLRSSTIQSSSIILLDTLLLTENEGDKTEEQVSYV

[15] = target: T6, 5-hydroxytryptamine receptor 2B; conditions: HEK293, at 10 µM
Translocator protein = Translocator protein (Homo sapiens, UniProt P30536); assay: Inhibition of TSPO (unknown origin)
Sequence of Translocator protein (P30536 whole entry): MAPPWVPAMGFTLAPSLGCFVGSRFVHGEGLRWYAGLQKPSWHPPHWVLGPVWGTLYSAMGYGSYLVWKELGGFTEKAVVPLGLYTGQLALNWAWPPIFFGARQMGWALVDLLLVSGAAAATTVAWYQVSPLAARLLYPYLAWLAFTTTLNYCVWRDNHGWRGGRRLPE

Adenosine receptor A3 = target: T7, Adenosine receptor A3 (Homo sapiens, UniProt P0DMS8); assay: Displacement of [125l]N 6-(4-amino-3-iodobenzyl)adenosine-5'-N-methyluronamide from recombinant human A3AR expressed in CHO cell membranes after 60 mins by gamma counting method
T7 sequence (P0DMS8 whole entry): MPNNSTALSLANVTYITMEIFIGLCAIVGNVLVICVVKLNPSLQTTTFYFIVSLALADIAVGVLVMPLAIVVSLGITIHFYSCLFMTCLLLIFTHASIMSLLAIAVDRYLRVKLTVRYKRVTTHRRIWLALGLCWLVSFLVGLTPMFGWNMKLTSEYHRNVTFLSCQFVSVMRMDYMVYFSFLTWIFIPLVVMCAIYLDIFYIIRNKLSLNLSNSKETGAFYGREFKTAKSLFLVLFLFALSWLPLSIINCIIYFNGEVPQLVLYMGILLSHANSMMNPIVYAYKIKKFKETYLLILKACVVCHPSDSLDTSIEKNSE

[16] = target: T8, 5-hydroxytryptamine receptor 3A (Homo sapiens) (UniProt P46098); assay: Displacement of [3H]GR65630 from human 5-HT3 receptor expressed in HEK-T cell membranes at 10 uM incubated for 90 mins under dark condition by microbeta scintillation counting method relative to control
T8 sequence (whole entry): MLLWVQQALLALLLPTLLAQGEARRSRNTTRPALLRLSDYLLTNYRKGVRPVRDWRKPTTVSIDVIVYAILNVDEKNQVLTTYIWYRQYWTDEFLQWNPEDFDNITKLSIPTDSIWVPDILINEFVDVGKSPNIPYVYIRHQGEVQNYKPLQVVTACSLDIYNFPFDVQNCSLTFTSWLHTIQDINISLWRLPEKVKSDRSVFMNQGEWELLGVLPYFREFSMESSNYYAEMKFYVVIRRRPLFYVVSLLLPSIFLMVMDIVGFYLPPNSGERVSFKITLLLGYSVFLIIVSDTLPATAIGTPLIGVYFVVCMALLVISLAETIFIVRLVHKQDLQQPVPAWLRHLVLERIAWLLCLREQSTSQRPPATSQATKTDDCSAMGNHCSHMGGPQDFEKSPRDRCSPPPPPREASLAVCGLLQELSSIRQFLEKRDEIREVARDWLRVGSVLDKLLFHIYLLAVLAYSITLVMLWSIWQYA

[17] = target: Adenosine receptor A3 (Homo sapiens) (UniProt P0DMS8); assay: Displacement of [125l]N 6-(4-amino-3-iodobenzyl)adenosine-5'-N-methyluronamide from recombinant human A3AR expressed in CHO cell membranes at 10 uM after 60 mins by gamma counting method relative to control
[18] = target: T9, Adenosine receptor A1 (Homo sapiens) (UniProt P30542); assay: Displacement of [3H]N6-phenylisopropyladenosine from recombinant human A1AR expressed in CHO cell membranes at 10 uM after 60 mins by liquid scintillation counting method relative to control
T9 sequence (whole entry): T5 sequence (P30542 whole entry)

[19] = Displacement of [3H]DTG from sigma2 receptor in rat PC12 cells after 90 mins by microbeta scintillation counting method; format: cell-based; conditions: pc-12

Sequence of 5-hydroxytryptamine receptor 1E (Homo sapiens) (P28566 whole entry): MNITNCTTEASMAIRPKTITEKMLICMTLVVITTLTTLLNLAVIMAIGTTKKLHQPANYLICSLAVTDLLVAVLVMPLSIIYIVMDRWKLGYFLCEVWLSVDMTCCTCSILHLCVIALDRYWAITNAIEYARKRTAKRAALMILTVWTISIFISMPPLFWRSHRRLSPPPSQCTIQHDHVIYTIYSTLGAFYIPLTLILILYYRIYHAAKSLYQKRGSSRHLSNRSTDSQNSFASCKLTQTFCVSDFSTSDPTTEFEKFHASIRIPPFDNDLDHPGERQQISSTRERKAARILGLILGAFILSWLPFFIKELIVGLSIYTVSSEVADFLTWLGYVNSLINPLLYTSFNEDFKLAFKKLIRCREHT

Compound: O[C@@H]1[C@H](O)[C@@H]2C[C@@H]2[C@H]1n1cnc2c(NCc3cccc(Cl)c3)nc(Cl)nc21
- inhibition [1]: < 50%
- inhibition [2]: < 50%
- Ki [3]: 4100 nM
- Ki [4]: 3260 nM
- inhibition [5]: < 50%
- inhibition [6]: < 50%
- inhibition [7]: < 50%
- inhibition [8]: < 50%
- inhibition [9]: > 50%
- inhibition [10]: < 10%
- Ki [11]: > 10000 nM
- inhibition [12]: < 50%
- Ki (Adenosine receptor A1): 1600 nM
- inhibition [13]: < 50%
- inhibition (Adenosine receptor A2a): > 50%
- Ki [14]: 2390 nM
- inhibition [15]: > 50%

Compound: CCCOC(=O)[C@@]12C[C@@H]1[C@@H](n1cnc3c(NC(C4CC4)C4CC4)nc(Cl)nc31)[C@H](O)[C@@H]2O
- inhibition [1]: < 50%
- inhibition [2]: < 50%
- Ki [3]: 205 nM
- Ki (Translocator protein): 2200 nM
- inhibition [5]: < 50%
- inhibition [6]: < 50%
- inhibition [7]: < 50%
- inhibition [8]: < 50%
- inhibition [9]: > 50%
- inhibition [10]: < 10%
- Ki [11]: > 10000 nM
- inhibition [12]: < 50%
- Ki (Adenosine receptor A3): 499 nM
- Ki (Adenosine receptor A1): 440 nM
- inhibition [13]: < 50%
- inhibition (Adenosine receptor A2a): 19%
- inhibition [16]: < 50%
- Ki [14]: 45 nM
- inhibition [15]: > 50%

Compound: CCOC(=O)[C@@]12C[C@@H]1[C@@H](n1cnc3c(N(C)C)nc(Cl)nc31)[C@H](O)[C@@H]2O
- inhibition [1]: < 50%
- inhibition [2]: < 50%
- Ki [3]: 1350 nM
- inhibition [5]: < 50%
- inhibition [6]: < 50%
- inhibition [7]: < 50%
- inhibition [17]: 30%
- inhibition [8]: < 50%
- inhibition [9]: > 50%
- inhibition [10]: < 10%
- Ki [11]: > 10000 nM
- inhibition [12]: < 50%
- inhibition [13]: < 50%
- inhibition (Adenosine receptor A2a): 13%
- inhibition [16]: < 50%
- Ki [14]: 671 nM
- inhibition [18]: < 10%
- inhibition [15]: > 50%

Compound: CNC(=O)[C@@]12C[C@@H]1[C@@H](n1cnc3c(N(C)C)nc(C#Cc4ccc(Cl)s4)nc31)[C@H](O)[C@@H]2O
- inhibition [1]: < 50%
- Ki [19]: 7300 nM
- inhibition [2]: < 50%
- Ki [3]: 8500 nM
- inhibition [5]: < 50%
- inhibition [6]: < 50%
- inhibition [7]: < 50%
- inhibition [8]: < 50%
- inhibition [9]: > 50%
- inhibition [10]: 27%
- Ki [11]: > 10000 nM
- inhibition [12]: < 50%
- Ki (Adenosine receptor A3): 23.5 nM
- inhibition [13]: < 50%
- inhibition (Adenosine receptor A2a): 15%
- inhibition [16]: < 50%
- inhibition [18]: 25%
- inhibition [15]: < 10%
